# From patent publication US20160158200A1, “Combinations of Hepatitis C Virus Inhibitors” (priority 2013, published 2016)
# System: HCV genotype-1a variant with glutamine 30 changed to glutamate in the NS5A protein
# Type: cell-based
# Settings: test compound titrated with BMS-790052 fixed at 200 nM; genotype 1a Q30E replicon
# Summary of the method: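 Synergy was assessed by combining several fixed amounts of an NS5A-targeting compound with a titration of the second compound of interest.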
row,Compound,Fold-Synergistic 1a (Q30E)
1,CC(C)[C@H](NC(=O)C1(C)CCCCC1)c1ncc(-c2ccc(-c3ccc(-c4cnc([C@@H](NC(=O)C5(C)CCCCC5)C(C)C)[nH]4)c(OC(F)F)c3)cc2)[nH]1 [Compound Y-12],>100 fold
2,CC(C)[C@H](NC(=O)C1(C)CC1)c1ncc(-c2ccc(-c3ccc(-c4cnc([C@@H](NC(=O)C5(C)CC5)C(C)C)[nH]4)cc3)cc2)[nH]1 [Compound S-1],>100 fold
3,CCOC(=O)N1CCC[C@H]1c1ncc(-c2ccc(-c3ccc(-c4cnc([C@@H]5CCCN5C(=O)OCC)[nH]4)cc3)cc2)[nH]1 [Compound S-217],>10 fold
4,CCCCC(=O)NC1(C(=O)N[C@H](c2nc(-c3ccc(-c4ccc(-c5c[nH]c([C@@H](NC(=O)C6(NC(=O)CCCC)CCCCC6)C(C)(C)C)n5)cc4)cc3)c[nH]2)C(C)(C)C)CCCCC1 [Compound W-253],>100 fold
5,"CC1(C(O)C(C)(C)C(=O)N[C@H](c2nc(-c3ccc(-c4ccc(-c5c[nH]c([C@@H](NC(=O)C(C)(C)C(O)C6(C)CC6)C(C)(C)C)n5)cc4)cc3)c[nH]2)C(C)(C)C)CC1 (single isomer, unassigned) [Compound N-151C]",>100 fold
6,CC(C)(C)C(=O)N[C@H]1CCC[C@H]1c1nc(-c2ccc(-c3ccc(-c4c[nH]c([C@@H]5CCC[C@@H]5NC(=O)C(C)(C)C)n4)cc3)cc2)c[nH]1 [Compound L-107],>100 fold
7,CC1(C)CCN(C(=O)C2(N3CCC(F)(F)CC3)COC2)C1c1nc(-c2ccc(-c3ccc(-c4c[nH]c(C5N(C(=O)C6(N7CCC(F)(F)CC7)COC6)CCC5(C)C)n4)cc3)cc2)c[nH]1 (stereo not shown) [Compound W-220],>10 fold
8,CC1(C)COC(C)(C(=O)N[C@H](c2nc(-c3ccc(-c4ccc(-c5c[nH]c([C@@H](NC(=O)C6(C)OCC(C)(C)CO6)C(C)(C)C)n5)cc4)cc3)c[nH]2)C(C)(C)C)OC1 [Compound P-154],>100 fold
9,CC(C)[C@H](NC(=O)C(C)(C)C)c1nc(-c2ccc(-c3ccc(-c4c[nH]c([C@@H](NC(=O)C(C)(C)C)C(C)C)n4)cn3)cc2)c[nH]1.O=C(O)C(F)(F)F [Compound N-103],>100 fold
10,"CC(C)(C)[C@H](NC(=O)C1(CO)CCCO1)c1nc(-c2ccc(-c3ccc(-c4c[nH]c([C@@H](NC(=O)C5(CO)CCCO5)C(C)(C)C)n4)cc3)cc2)c[nH]1 (single isomer, unassigned) [Compound Y-110]",>100 fold
11,CCCCOC(=O)N[C@@H](C(=O)N[C@H](c1ncc(-c2ccc(-c3ccc(-c4cnc([C@@H](NC(=O)[C@H](NC(=O)OCCCC)C(C)C)C(C)C)[nH]4)cc3)cc2)[nH]1)C(C)C)C(C)C [Compound S-249],>100 fold
12,"CC1(O)CC(C(=O)N[C@H](c2nc(-c3ccc(-c4ccc(-c5c[nH]c([C@@H](NC(=O)C6CC(C)(O)C6)C(C)(C)C)n5)cc4)cc3)c[nH]2)C(C)(C)C)C1 (single isomer, unassigned) [Compound W-169]",>100 fold
13,"CC(O)(CF)C(=O)N[C@H](c1nc(-c2ccc(-c3ccc(-c4c[nH]c([C@@H](NC(=O)C(C)(O)CF)C(C)(C)C)n4)cc3)cc2)c[nH]1)C(C)(C)C (single isomer, unassigned) [Compound N-139B]",>100 fold
14,CC(C)(C)C(=O)N[C@H](c1ncc(-c2ccc3cc(-c4ccc5nc([C@@H](NC(=O)C(C)(C)C)C(C)(C)C)[nH]c5c4)ccc3c2)[nH]1)C(C)(C)C [Compound B54],>100 fold
15,CC(C)[C@H](NC(=O)OCc1ccccc1)c1ncc(-c2ccc(-c3ccc(-c4cnc([C@@H](NC(=O)OCc5ccccc5)C(C)C)[nH]4)cc3)cc2)[nH]1 [Compound S-215],>100 fold
16,CC(C)[C@H](NC(=O)C(C)(C)F)c1nc(-c2ccc(-c3ccc(-c4c[nH]c([C@@H](NC(=O)C(C)(C)F)C(C)C)n4)cc3F)cc2)c[nH]1.O=C(O)C(F)(F)F [Compound N-97],>100 fold
17,CC(C)[C@H](NC(=O)N1CCCC1)c1ncc(-c2ccc(-c3ccc(-c4cnc([C@@H](NC(=O)N5CCCC5)C(C)C)[nH]4)cc3)cc2)[nH]1 [Compound S-232],>100 fold
18,CC(C)[C@H](NC(=O)CC12CC3CC(CC(C3)C1)C2)c1ncc(-c2ccc(-c3ccc(-c4cnc([C@@H](NC(=O)CC56CC7CC(CC(C7)C5)C6)C(C)C)[nH]4)cc3)cc2)[nH]1 [Compound P-57],>100 fold
19,CC(C)(C)[C@H](NC(=O)Cc1ccccc1OC(F)(F)F)c1nc(-c2ccc(-c3ccc(-c4c[nH]c([C@@H](NC(=O)Cc5ccccc5OC(F)(F)F)C(C)(C)C)n4)cc3)cc2)c[nH]1 [Compound Y-73],>100 fold
20,CC(C)(C)[C@H](NC(=O)Cc1ccccc1F)c1nc(-c2ccc(-c3ccc(-c4c[nH]c([C@@H](NC(=O)Cc5ccccc5F)C(C)(C)C)n4)cc3)cc2)c[nH]1 [Compound N-48],>100 fold

row,Compound,Fold-Synergistic 1a (Q30E)
1,CC(C)[C@H](NC(=O)C(C)(C)C)c1ncc(-c2ccc(-c3ccc(-c4cnc([C@@H](NC(=O)C(C)(C)C)C(C)(C)C)[nH]4)cc3)cc2)[nH]1 [Compound Y-41],>100 fold
2,CC(C)[C@H](NC(=O)c1cccc(Cl)c1)c1ncc(-c2ccc(-c3ccc(-c4cnc([C@@H](NC(=O)c5cccc(Cl)c5)C(C)(C)C)[nH]4)cc3)cc2)[nH]1 [Compound Y-46],>100 fold
3,CC(C)(C)[C@H](NC(=O)C12CCC(CC1)N2)c1nc(-c2ccc(-c3ccc(-c4c[nH]c([C@@H](NC(=O)C56CCC(CC5)N6)C(C)(C)C)n4)cc3)cc2)c[nH]1.Cl.Cl.Cl.Cl [Compound W-92],>10 fold
4,CN(C(=O)OC(C)(C)C)C1(C(=O)N[C@H](c2nc(-c3ccc(-c4ccc(-c5c[nH]c([C@@H](NC(=O)C6(N(C)C(=O)OC(C)(C)C)CCC6)C(C)(C)C)n5)cc4)cc3)c[nH]2)C(C)(C)C)CCC1.O=C(O)C(F)(F)F.O=C(O)C(F)(F)F [Compound L-14],>100 fold
5,CC(C)[C@H](NC(=O)C(C)(C)C)c1nc(-c2ccc(-c3ccc(-c4c[nH]c([C@@H](NC(=O)C(C)(C)C)C(C)C)n4)c(F)c3)cc2)c[nH]1.O=C(O)C(F)(F)F [Compound N-89],>100 fold
6,CC(C)[C@H](NC(=O)C1(C(F)(F)F)CC1)c1ncc(-c2ccc(-c3ccc(-c4cnc([C@@H](NC(=O)C5(C(F)(F)F)CC5)C(C)C)[nH]4)cc3)cc2)[nH]1 [Compound P-88],>100 fold
7,O=C(c1cncnc1)N1CCC[C@H]1c1ncc(-c2ccc(-c3ccc(-c4cnc([C@@H]5CCCN5C(=O)c5cncnc5)[nH]4)cc3)cc2)[nH]1 [Compound S-195],<10 fold
8,CC(C)[C@H](NC(=O)OC(C)(C)C)c1ncc(-c2ccc(-c3ccc(-c4cnc([C@@H](NC(=O)OC(C)(C)C)C(C)(C)C)[nH]4)cc3)cc2)[nH]1 [Compound Y-40],>100 fold
9,CCCC[C@@H](CC(=O)OC(C)(C)C)C(=O)N[C@H](c1nc(-c2ccc(-c3ccc(-c4c[nH]c([C@@H](NC(=O)[C@@H](CCCC)CC(=O)OC(C)(C)C)C(C)(C)C)n4)cc3)cc2)c[nH]1)C(C)(C)C [Compound S-260],>100 fold
10,CC(C)(C)[C@H](NC(=O)C1CCC(F)(F)CC1)c1nc2ccc(-c3ccc(-c4ccc5nc([C@@H](NC(=O)C6CCC(F)(F)CC6)C(C)(C)C)[nH]c5c4)cc3)cc2[nH]1 [Compound B32],>100 fold
11,CC(C)(C)[C@H](NC(=O)CC12CC3CC(CC(C3)C1)C2)c1nc(-c2ccc(-c3ccc(-c4c[nH]c([C@@H](NC(=O)CC56CC7CC(CC(C7)C5)C6)C(C)(C)C)n4)cc3)cc2)c[nH]1 [Compound N-63],>100 fold
12,CC(C)[C@H](NC(=O)c1ccc(F)cc1Cl)c1ncc(-c2ccc(-c3ccc(-c4cnc([C@@H](NC(=O)c5ccc(F)cc5Cl)C(C)C)[nH]4)cc3)cc2)[nH]1 [Compound S-88],>100 fold
13,"CC(C)(C(=O)N[C@H](c1nc(-c2ccc(-c3ccc(-c4c[nH]c([C@@H](NC(=O)C(C)(C)C(O)c5ccccc5F)C(C)(C)C)n4)cc3)cc2)c[nH]1)C(C)(C)C)C(O)c1ccccc1F (single isomer, unassigned) [Compound N-124A]",>100 fold
14,COC(=O)C1(C(=O)N[C@H](c2nc(-c3ccc(-c4ccc(-c5c[nH]c([C@@H](NC(=O)C6(C(=O)OC)CCCCC6)C(C)(C)C)n5)cc4)cc3)c[nH]2)C(C)(C)C)CCCCC1 [Compound S-273],>100 fold
15,CC(C)[C@H](NC(=O)N1CCOCC1)c1ncc(-c2ccc(-c3ccc(-c4cnc([C@@H](NC(=O)N5CCOCC5)C(C)C)[nH]4)cc3)cc2)[nH]1 [Compound S-231],>10 fold
16,CC(C)[C@H](NC(=O)C(C)(C)C)c1nc(-c2ccc(-c3ccc(-c4c[nH]c([C@@H](NC(=O)C(C)(C)C)C(C)C)n4)cc3F)cc2)c[nH]1.O=C(O)C(F)(F)F [Compound N-100],>100 fold
17,"CC(C)(C(=O)N[C@H](c1nc(-c2ccc(-c3ccc(-c4c[nH]c([C@@H](NC(=O)C(C)(C)C(O)c5ccccc5F)C(C)(C)C)n4)cc3)cc2)c[nH]1)C(C)(C)C)C(O)c1ccccc1F (single isomer, unassigned) [Compound N-124B]",>100 fold
18,CC(C)(C(=O)N[C@H](c1ncc(-c2ccc(-c3ccc(-c4cnc([C@@H](NC(=O)C(C)(C)C5CCCC5)C(C)(C)C)[nH]4)cc3)cc2)[nH]1)C(C)(C)C)C1CCCC1 [Compound B82],>100 fold
19,CC(C)[C@H](NC(=O)C(=O)C1(C)CCC1)c1ncc(-c2ccc(-c3ccc(-c4cnc([C@@H](NC(=O)C(=O)C5(C)CCC5)C(C)C)[nH]4)cc3)cc2)[nH]1 [Compound P-115],>100 fold
20,CCCCOC(=O)N1CCC[C@H]1c1ncc(-c2ccc(-c3ccc(-c4cnc([C@@H]5CCCN5C(=O)OCCCC)[nH]4)cc3)cc2)[nH]1 [Compound S-219],>10 fold
